Tests used:
Assay type in all cases: cell-based, human
MCF7 cells = assay: MTS cell viability/proliferation assay
Description: (§1) Viable and dead cells were detected by the trypan blue exclusion assay, where viable cells (non-stained) with intact membrane are able to exclude the dye, while dead cells take up the coloring blue agent from the media. To quantitatively assess the viability and/or proliferation of cells a MTS assay was used, which incorporates a redox indicator that changes color in response to metabolic activity. To study cell viability in response to CaMK-III siRNA or control siRNA and plasmid encoding CaMK-III or empty plasmid transfection cells were seeded in 96-well plates at a density of 3×10^3 cells per well in 100 μl of medium. Next day the medium was removed and cells were transfected with siRNA at different concentrations in 100 μl of medium plus transfection mix. Two days after transfection, the medium was removed and replaced by 180 μl of medium plus 20 μl of MTS and the cells were incubated under normal conditions until the color changed. Plates were read at dual wavelengths (570-595 nm) in an Elisa plate reader (Kinetic Microplate Reader, Molecular Devices Corporation, Sunnyvale, Calif.).
(§2) (aka proliferation assay, in this case MTS assay was used. MTS, MTT, XTT all similar assays often used as cell viability/toxicity assay). Cell viability in response to compounds such as 5NT and KD06 was studied with a tetrazolium/formazan based assay (MTS, Celltiter 96 aqueous one solution cell proliferation assay, Promega, WI) [Akar U, Chaves-Reyez A, Barria g Tari A, Sanguino A, Kondo Y, Kondo S, Arun B, Lopez-Berestein G, Ozpolat B: Silencing of Bcl-2 expression by small interfering RNA induces autophagic cell death in MCF-7 breast cancer cells. Autophagy 2008, 4:669-679, Ozpolat 2007 MCR]. Cells were seeded in 96 wells plates at a density of 1.5 to 3.0×10^3 cells per well in 100 μl of medium. Next day the medium was removed and cells were treated with the drug in 100 μl of medium for 72 hours. Plates were read at 490 nm wavelength in an Elisa plate reader (Kinetic Microplate Reader, Molecular Devices Corporation, Sunnyvale, Calif.).

MCF7/Dox resistant cells = assay: MTS cell viability/proliferation assay
Description: as §1, §2

MCF-7 cells = assay: Clonogenic survival assay
Protocol: To study the effect of CaMK-III growth of ER(−) and ER(+) breast cancer cells we performed a clonogenic assay, which is based on the ability of a single cell to grow into a colony (Franken N A, et al. Nat Protoc 2006: 1:2315-9), using MDA-MB-231 and MCF-7 cells, respectively. Cells were transfected with either CaMK-III or control siRNA (50 nM) […] over a period of two weeks.
This assay is an in vitro cell survival assay based on the ability of a single cell to grow into a colony. Briefly, cells (500 cells/well) were transfected with control siRNA or CaMK-III siRNA every week and grown for 2 to 3 weeks. Cells were stained with crystal violet and colonies were counted. Each experiment was repeated twice.
To study the effect of 5-HT1B on the survival and colony formation of breast cancer cells a clonogenic survival assay was performed using various concentrations of […] over a period of two weeks. This assay is based on the ability of a single cell to grow into a colony [Franken N A, et al. Nat Protoc 2006: 1:2315-2319]. […] Cell death and detachment as well as reduced cell number was observed.
This assay is an in vitro cell survival assay based on the ability of a single cell to grow into a colony. […] Cells were stained with crystal violet and colonies cells were counted. […]

CCCCCCCCCOc1ccc2[nH]cc(CCN)c2c1 [5-NT, 5-nonylytryptamine]
selectivity for tumorigenic MCF-7 compared to non-tumorigenic MCF-10A (MCF7 cells): much higher selectivity
inhibition of proliferation (MCF7 cells; ER(+)): inhibits proliferation
inhibition of proliferation (MCF7/Dox resistant cells): inhibits proliferation
colony formation (MCF-7 cells): inhibits colony formation
